The values below come from BindingDB's records for doi:10.1016/j.bmcl.2003.09.069 (Sugen, 2003).

A short description of the assay: Inhibitory activity against cellular Src protein tyrosine kinase using the actin ring assay.
In turn, `CNS(=O)(=O)c1ccc2c(c1)/C(=C/c1[nH]c3c(c1CCCN1CCC(O)CC1)CCCC3)C(=O)N2` [3-[1-{3-[3-(4-Hydroxy-piperidin-1-yl)-propyl]-4,5,6,7-tetrahydro-1H-indol-2-yl}-meth-(Z)-ylidene]-2-oxo-2,3-dihydro-1H-indole-5-sulfonic acid methylamide] gave an IC50 of 900 nM. That is a sub-micromolar value.

For the molecule `CCOC(=O)CN1CCN(CCCc2c(/C=C3\C(=O)Nc4ccc(S(=O)(=O)NC)cc43)[nH]c3c2CCCC3)CC1` [[4-(3-{2-[5-Methylsulfamoyl-2-oxo-1,2-dihydro-indol-(3Z)-ylidenemethyl]-4,5,6,7-tetrahydro-1H-indol-3-yl}-propyl)-piperazin-1-yl]-acetic acid ethyl ester], the IC50 was 900 nM.

Turning to `CNS(=O)(=O)c1ccc2c(c1)/C(=C/c1[nH]c3c(c1CCC(N)=O)CCCC3)C(=O)N2` [3-{2-[5-Methylsulfamoyl-2-oxo-1,2-dihydro-indol-(3Z)-ylidenemethyl]-4,5,6,7-tetrahydro-1H-indol-3-yl}-propionamide], the IC50 was > 10000 nM.

In turn, `CCS(=O)(=O)c1ccc2c(c1)/C(=C/c1[nH]c3c(c1CCCN1CCC(O)CC1)CCCC3)C(=O)N2` [5-Ethanesulfonyl-3-[1-{3-[3-(4-hydroxy-piperidin-1-yl)-propyl]-4,5,6,7-tetrahydro-1H-indol-2-yl}-meth-(Z)-ylidene]-1,3-dihydro-indol-2-one] had an IC50 of 800 nM.

`CNS(=O)(=O)c1ccc2c(c1)/C(=C/c1[nH]c3c(c1CCCN1CCOCC1)CCCC3)C(=O)N2` [3-[1-[3-(3-Morpholin-4-yl-propyl)-4,5,6,7-tetrahydro-1H-indol-2-yl]-meth-(Z)-ylidene]-2-oxo-2,3-dihydro-1H-indole-5-sulfonic acid methylamide] came in with an IC50 of 100 nM.

On to `CNS(=O)(=O)c1ccc2c(c1)/C(=C/c1[nH]c3c(c1CCCN1CCN(CC(=O)O)CC1)CCCC3)C(=O)N2` [[4-(3-{2-[5-Methylsulfamoyl-2-oxo-1,2-dihydro-indol-(3Z)-ylidenemethyl]-4,5,6,7-tetrahydro-1H-indol-3-yl}-propyl)-piperazin-1-yl]-acetic acid], for which the IC50 was > 10000 nM.

Consider `CCS(=O)(=O)c1ccc2c(c1)/C(=C/c1[nH]c3c(c1CN1CCOCC1)CCCC3)C(=O)N2` [5-Ethanesulfonyl-3-[1-(3-morpholin-4-ylmethyl-4,5,6,7-tetrahydro-1H-indol-2-yl)-meth-(Z)-ylidene]-1,3-dihydro-indol-2-one], for which the IC50 came out at 5000 nM.

`CNS(=O)(=O)c1ccc2c(c1)/C(=C/c1[nH]c3c(c1CN1CCOCC1)CCCC3)C(=O)N2` [3-[1-(3-Morpholin-4-ylmethyl-4,5,6,7-tetrahydro-1H-indol-2-yl)-meth-(Z)-ylidene]-2-oxo-2,3-dihydro-1H-indole-5-sulfonic acid methylamide] returned an IC50 of 1000 nM.

For `CNS(=O)(=O)c1ccc2c(c1)/C(=C/c1[nH]c3c(c1CCCN1CCN(CCO)CC1)CCCC3)C(=O)N2` [3-[1-(3-{3-[4-(2-Hydroxy-ethyl)-piperazin-1-yl]-propyl}-4,5,6,7-tetrahydro-1H-indol-2-yl)-meth-(Z)-ylidene]-2-oxo-2,3-dihydro-1H-indole-5-sulfonic acid methylamide], the IC50 came to 3000 nM.

On to `CCS(=O)(=O)c1ccc2c(c1)/C(=C/c1[nH]c3c(c1CCC(N)=O)CCCC3)C(=O)N2` [3-{2-[5-Ethanesulfonyl-2-oxo-1,2-dihydro-indol-(3Z)-ylidenemethyl]-4,5,6,7-tetrahydro-1H-indol-3-yl}-propionamide], for which the IC50 was > 10000 nM.

`CNS(=O)(=O)c1ccc2c(c1)/C(=C/c1[nH]c3c(c1CCCN1CCN(C)CC1)CCCC3)C(=O)N2` [3-[1-{3-[3-(4-Methyl-piperazin-1-yl)-propyl]-4,5,6,7-tetrahydro-1H-indol-2-yl}-meth-(Z)-ylidene]-2-oxo-2,3-dihydro-1H-indole-5-sulfonic acid methylamide] gave an IC50 of 100 nM.

Regarding `CCS(=O)(=O)c1ccc2c(c1)/C(=C/c1[nH]c3c(c1CCCN1CCN(CCO)CC1)CCCC3)C(=O)N2` [5-Ethanesulfonyl-3-[1-(3-{3-[4-(2-hydroxy-ethyl)-piperazin-1-yl]-propyl}-4,5,6,7-tetrahydro-1H-indol-2-yl)-meth-(Z)-ylidene]-1,3-dihydro-indol-2-one], the IC50 stood at 1700 nM.

As for `CCS(=O)(=O)c1ccc2c(c1)/C(=C/c1[nH]c3c(c1CCCN(C)C)CCCC3)C(=O)N2` [3-[1-[3-(3-Dimethylamino-propyl)-4,5,6,7-tetrahydro-1H-indol-2-yl]-meth-(Z)-ylidene]-5-ethanesulfonyl-1,3-dihydro-indol-2-one], inhibition was half-maximal at 500 nM (IC50).

Take `CCS(=O)(=O)c1ccc2c(c1)/C(=C/c1[nH]c3c(c1CCCN1CCN(CC(=O)O)CC1)CCCC3)C(=O)N2` [[4-(3-{2-[5-Ethanesulfonyl-2-oxo-1,2-dihydro-indol-(3Z)-ylidenemethyl]-4,5,6,7-tetrahydro-1H-indol-3-yl}-propyl)-piperazin-1-yl]-acetic acid]: the IC50 worked out at 10000 nM.
